Patent US20050069517A1, “Hair conditioning compositions” (priority 2003, published 2005)

Assay: Hair penetration by TOF-SIMS imaging of cross sections of treated hair fibers
Format: physicochemical, human
Conditions: bleached dark brown European hair; agent massaged in, 24 hours at approximately 32° C., rinsed 1 minute, air-dried; positive-ion TOF-SIMS images
Method: What is meant by “penetrate” is that the hair conditioning agent is deposited into a region of the hair following application of the conditioning agent to the hair for twenty-four hours. Such analysis of hair penetration is set forth below in Example 8.
Various hair conditioning agents were tested for their ability to penetrate into human hair. Secondary ion mass spectrometry (SIMS) in combination with a time of flight (TOF) mass spectrometer was used to determine hair penetration. Time-Of-Flight Secondary Ion Mass Spectrometry (TOF-SIMS) makes use of the secondary ion mass spectra (of atomic species or low molecular weight fragments), which are formed when the sample surface (e.g., surface of hair fiber cross sections) is bombarded with a positively charged gallium ion beam. The positive and negative ion mass spectra of the sample were obtained by the time-of-flight method. See, e.g., Ruetsch, et al., J. Cosmet. Sci., 52, 169-184 (2001). The Gallium gun, which emits a pulsed primary ion beam (accelerating voltage of 25 kV), was used in the study.
The protocol was as follows. Dark brown European hair obtained from DeMeo Brothers, New York, N.Y. was bleached for 30 minutes with alkaline 6% hydrogen peroxide (adjusted to pH 10.2 with ammonium hydroxide). […]

CCCCCCCCCCCCCCCC(=O)N[C@@H](CO)C(=O)OCCCCCCCCCCCCCC [Palmitoyl Myristyl Serinate]
penetration of hair conditioning agent into hair fiber cross section: not detected in the cross section of treated hair
